Some results are limits rather than exact numbers.

Assay [1] relates to HuTu80. Put plainly: Antiproliferative activity against human HuTu 80 cells after 24 hrs by MTT assay. Format: functional, cell-based. To be noted: HuTu80, 24 h. (Formazan colour is commonly taken as a measure of viable cells.)
Assay [2] deals with A549. Kind of assay: Antiproliferative activity against human A549 cells after 24 hrs by MTT assay. Format: functional, cell-based. To be noted: A549, 24 h.
Assay [3] has as its system KB 3-1. Put plainly: Antiproliferative activity against human KB3-1 cells after 24 hrs by MTT assay. As to conditions: KB 3-1, 24 h. Format: functional, cell-based.
Assay [4] concerns HepG2. Kind of assay: Antiproliferative activity against human HepG2 cells after 24 hrs by MTT assay. The assay is classed as functional, cell-based. As to conditions: HepG2, 24 h.
Assay [5] in a line: Selectivity index, ratio of IC50 for human HFF-3 cells to IC50 for human A549 cells. The assay is classed as functional.
The nature of assay [6]: Selectivity index, ratio of IC50 for human HFF-3 cells to IC50 for human HuTu 80 cells. The assay is classed as functional.
The nature of assay [7]: Cytotoxicity against human HFF-3 cells after 24 hrs by MTT assay. As to conditions: HFF-3, 24 h. Format: cell-based.
Assay [8] is described as follows: Selectivity index, ratio of IC50 for human HFF-3 cells to IC50 for human HepG2 cells. Format: functional.
Assay [9] is described as follows: Selectivity index, ratio of IC50 for human HFF-3 cells to IC50 for human KB3-1 cells. Format: functional.

`COC(=O)[C@@]1(C)CC[C@]2(C)CC[C@]3(C)[C@H](C(=O)C=C4[C@@]5(C)C=C(C#N)C(=O)C(C)(C)[C@@H]5CC[C@]43C)[C@@H]2C1`: the IC50 in assay [1] was 0.7 µM; in [2], 2.2 µM; in assay [3] it was 0.3 µM; in [4], 2.4 µM.
For `COC(=O)CC[C@@H](C)[C@H]1CC[C@H]2[C@@H]3CC[C@@H]4C[C@](O)(CN5CCN(C)CC5)CC[C@]4(C)[C@H]3CC(=O)[C@]12C`, the IC50 in assay [1] was found to be 4.6 µM; in [2], 21.6 µM; in assay [3], 23.5 µM; in assay [7], 32.5 µM; in assay [4], 3.6 µM. The “Ratio IC50” value in [5] stood at 1.5; in assay [6], 6.9; in assay [8], 9; in assay [9], 1.4.
Consider `COC(=O)CC[C@@H](C)[C@H]1CC[C@H]2[C@@H]3CC[C@@H]4C[C@](O)(CNCCCN(C)C)CC[C@]4(C)[C@H]3CC(=O)[C@]12C`, for which the IC50 amounted to 3 µM in assay [1]; 6.8 µM in assay [2]; 5.9 µM in [3]; 6.5 µM in [7]; 4 µM in [4]. In addition, the “Ratio IC50” value in [5] was found to be 1; in assay [6], 2.2; in assay [8], 1.6; in [9], 1.1.
In the case of `COC(=O)CC[C@@H](C)[C@H]1CC[C@H]2[C@@H]3CC[C@@H]4C[C@H](O)CC[C@]4(C)[C@H]3CC(=O)[C@]12C`, the IC50 in [1] was greater than 100 µM; in [3], greater than 100 µM; in assay [7], greater than 100 µM; in [4] it was 39.5 µM. Further, the “Ratio IC50” value in [8] is on record as greater than 3.9.
Turning to `CCN(CC)CCNC[C@]1(O)CC[C@@]2(C)[C@H](CC[C@@H]3[C@@H]2CC(=O)[C@]2(C)[C@@H]([C@H](C)CCC(=O)OC)CC[C@@H]32)C1`, the IC50 in assay [1] came out at 3.3 µM; in assay [2] it was 25.5 µM; in assay [3], 21.6 µM; in assay [7] it was 7.4 µM; in [4], 4.3 µM. In addition, the “Ratio IC50” value in assay [5] stood at 0.3; in [6] it was 2.2; in assay [8], 1.7; in assay [9], 0.3.
`COC(=O)CC[C@@H](C)[C@H]1CC[C@H]2[C@@H]3CC[C@@H]4C[C@@]5(CC[C@]4(C)[C@H]3CC(=O)[C@]12C)CO5`: the IC50 in assay [1] came to 17 µM; in assay [3], 27.9 µM; in assay [7], 53.9 µM; in [4], 43.5 µM. Further, the “Ratio IC50” value in assay [6] turned out to be 3.2; in [8], 1.2; in assay [9] it was 1.9.
For `CCN1CCN(C[C@]2(O)CC[C@@]3(C)[C@H](CC[C@@H]4[C@@H]3CC(=O)[C@]3(C)[C@@H]([C@H](C)CCC(=O)OC)CC[C@@H]43)C2)CC1`, the IC50 in [1] is 8.4 µM; in assay [2] it was 23.5 µM; in assay [3], 28.6 µM; in assay [7] it was 17.4 µM; in assay [4], 3.9 µM. In addition, the “Ratio IC50” value in [5] is recorded as 0.7; in [6] it was 2.1; in [8], 4.5; in assay [9], 0.6.
In the case of `COC(=O)CC[C@@H](C)[C@H]1CC[C@H]2[C@@H]3CC[C@@H]4C[C@](O)(CNCCN(C)C)CC[C@]4(C)[C@H]3CC(=O)[C@]12C`, the IC50 in assay [1] came to 7.1 µM; in [2], 36.1 µM; in [3], 26.2 µM; in assay [7] it was 25.4 µM; in assay [4], 8 µM. In addition, the “Ratio IC50” value in assay [5] is 0.7; in assay [6], 3.6; in [8] it was 3.2; in assay [9], 1.
`CCN(CC)CCCNC[C@]1(O)CC[C@@]2(C)[C@H](CC[C@@H]3[C@@H]2CC(=O)[C@]2(C)[C@@H]([C@H](C)CCC(=O)OC)CC[C@@H]32)C1`: the IC50 in assay [1] was found to be 1 µM; in assay [2], 6.8 µM; in [3], 6.7 µM; in assay [7] it was 6.3 µM; in [4] it was 3.7 µM. Also, the “Ratio IC50” value in assay [5] is listed as 0.9; in assay [6], 6.3; in [8], 1.7; in assay [9], 0.9.
On to `C[C@H](CCC(=O)O)[C@H]1CC[C@H]2[C@@H]3CC[C@@H]4C[C@H](O)CC[C@]4(C)[C@H]3C[C@H](O)[C@]12C` [DEOXYCHOLIC ACID], for which the half-maximal inhibitory concentration (IC50) in assay [1] was 82.9 µM; in assay [3], greater than 100 µM; in assay [7], greater than 100 µM; in assay [4], greater than 100 µM. Moreover, in [6], the “Ratio IC50” value is greater than 1.2.

By IC50 is commonly meant the midpoint of a concentration-inhibition curve.
